Blank lines part the entries; values can stand above or below the compound they belong to.
Test system: protease enzyme
Test: % residual activity (RA) of the protease enzyme in liquid detergent composition after storage at 37° C.
Assay type: biochemical
Settings: for Avg. RA (%): 37° C.; for protease stability versus control, in words: Examples 1-3, storage at 37° C. up to 56 days
Procedure: All catalysts dosed at 0.1% by weight on tope of the composition except complex G. This catalyst was dosed at 0.06 weight %.
In all cases, the pH of the composition was 7.2.
The % residual activity (RA) of the protease enzyme after storage at 37° C. was measured up to 56 days for the compositions of Examples 1-4 alone (controls), for the same compositions with 0.1% by weight of the complex B added and the same compositions with only the free ligand A added on top of the formulation (on a mole equivalent basis of the amount of the ligand in 0.1% by weight of complex B).
In Examples 4-9, 11 and 12, the pH of the composition was 7.2.
In Example 10, the pH of the composition was 8.0.

SMILES: CN1CCCN2CCN(C)CCCN(CC1)CC2 [Complex I, 5,12-dimethyl-1,5,8,12-tetraazabicyclo[6.6.2] hexadecane]
Avg. RA (%) (Example 12 composition pH 7.2, +0.1% Complex I, day 0): 100.0%
Avg. RA (%) (Example 12 composition pH 7.2, +0.1% Complex I, day 7): 84%
Avg. RA (%) (Example 12 composition pH 7.2, +0.1% Complex I, day 14): 78%
Avg. RA (%) (Example 12 composition pH 7.2, +0.1% Complex I, day 28): 67%

SMILES: COC(=O)C12CN(Cc3ccccn3)CC(C(=O)OC)(C1=O)C(c1ccccn1)N(C)C2c1ccccn1.O.[Cl][Fe][Cl] (stereo not drawn) [Complex H, Chloro(dimethyl 2,4-di-(2-pyridyl)-3-methyl-7-(pyridin-2-ylmethyl)-3,7-diaza-bicyclo[3.3.1]nonan-9-one-1,5-dicarboxylate)iron(II)-chloride hydrate]
Avg. RA (%) (Example 9 composition pH 7.2, +0.1% Complex H, day 0): 100.0%
Avg. RA (%) (Example 9 composition pH 7.2, +0.1% Complex H, day 7): 93%
Avg. RA (%) (Example 9 composition pH 7.2, +0.1% Complex H, day 14): 91%
Avg. RA (%) (Example 9 composition pH 7.2, +0.1% Complex H, day 28): 88%

SMILES: CC(c1ccccn1)(c1ccccn1)N(Cc1ccccn1)Cc1ccccn1.O.O.[Cl-].[Cl-].[Fe+2] [Complex B, [Fe(MeN4py)Cl]Cl.2H20]
Avg. RA (%) (Ex. 1 composition pH 7.2, +0.1% Complex B, day 0): 100.0%
Avg. RA (%) (Ex. 1 composition pH 7.2, +0.1% Complex B, day 3): 93.7%
Avg. RA (%) (Ex. 1 composition pH 7.2, +0.1% Complex B, day 7): 84.1%
Avg. RA (%) (Ex. 1 composition pH 7.2, +0.1% Complex B, day 14): 93.9%
Avg. RA (%) (Ex. 1 composition pH 7.2, +0.1% Complex B, day 28): 79.0%
Avg. RA (%) (Ex. 1 composition pH 7.2, +0.1% Complex B, day 56): 71.3%
Avg. RA (%) (Ex. 2 composition pH 7.2, +0.1% Complex B, day 0): 100.0%
Avg. RA (%) (Ex. 2 composition pH 7.2, +0.1% Complex B, day 3): 92.2%
Avg. RA (%) (Ex. 2 composition pH 7.2, +0.1% Complex B, day 7): 87.1%
Avg. RA (%) (Ex. 2 composition pH 7.2, +0.1% Complex B, day 14): 80.4%
Avg. RA (%) (Ex. 2 composition pH 7.2, +0.1% Complex B, day 28): 89.7%
Avg. RA (%) (Ex. 2 composition pH 7.2, +0.1% Complex B, day 56): 75.4%
Avg. RA (%) (Ex. 3 composition pH 7.2, +0.1% Complex B, day 0): 100.0%
Avg. RA (%) (Ex. 3 composition pH 7.2, +0.1% Complex B, day 3): 79.0%
Avg. RA (%) (Ex. 3 composition pH 7.2, +0.1% Complex B, day 7): 74.0%
Avg. RA (%) (Ex. 3 composition pH 7.2, +0.1% Complex B, day 14): 64.9%
Avg. RA (%) (Ex. 3 composition pH 7.2, +0.1% Complex B, day 28): 59.8%
Avg. RA (%) (Ex. 3 composition pH 7.2, +0.1% Complex B, day 56): 48.7%
Avg. RA (%) (Example 4 composition (with sorbitol) pH 7.2, +0.1% Complex B, day 0): 100.0%
Avg. RA (%) (Example 4 composition (with sorbitol) pH 7.2, +0.1% Complex B, day 7): 98%
Avg. RA (%) (Example 4 composition (with sorbitol) pH 7.2, +0.1% Complex B, day 14): 97%
Avg. RA (%) (Example 4 composition (with sorbitol) pH 7.2, +0.1% Complex B, day 28): 92%
Avg. RA (%) (Example 10 composition pH 8.0, +0.1% Complex B, day 0): 100.0%
Avg. RA (%) (Example 10 composition pH 8.0, +0.1% Complex B, day 3): 92%
Avg. RA (%) (Example 10 composition pH 8.0, +0.1% Complex B, day 7): 91%
Avg. RA (%) (Example 10 composition pH 8.0, +0.1% Complex B, day 14): 86%
Avg. RA (%) (Example 10 composition pH 8.0, +0.1% Complex B, day 28): 83%
protease stability versus control, in words: improvement in stability

SMILES: [Cl-].[Cl-].[Fe+2].c1ccc(CN(Cc2ccccn2)C(c2ccccn2)c2ccccn2)nc1 [Complex C]
Avg. RA (%) (Example 5 composition pH 7.2, +0.1% Complex C, day 0): 100.0%
Avg. RA (%) (Example 5 composition pH 7.2, +0.1% Complex C, day 7): 98%
Avg. RA (%) (Example 5 composition pH 7.2, +0.1% Complex C, day 14): 91%
Avg. RA (%) (Example 5 composition pH 7.2, +0.1% Complex C, day 28): 78%

SMILES: CN1CCN(C)CCN(C)CC1.CN1CCN(C)CCN(C)CC1.F[P-](F)(F)(F)(F)F.F[P-](F)(F)(F)(F)F.[Mn+4].[Mn+4].[O-2].[O-2].[O-2] [Complex E, [Mn2(1,4,7-trimethyl-1,4,7-triazacyclononane)2(μ-O)3] (PF6)2]
Avg. RA (%) (Example 7 composition pH 7.2, +0.1% Complex E, day 0): 100.0%
Avg. RA (%) (Example 7 composition pH 7.2, +0.1% Complex E, day 7): 93%
Avg. RA (%) (Example 7 composition pH 7.2, +0.1% Complex E, day 14): 87%
Avg. RA (%) (Example 7 composition pH 7.2, +0.1% Complex E, day 28): 80%

SMILES: CC(c1ccccn1)(c1ccccn1)N(Cc1ccccn1)Cc1ccccn1 [Ligand A, N,N-bis(pyridin-2-yl-methyl)-1,1-bis(pyridin-2-yl)-1-aminoethane]
Avg. RA (%) (Ex. 1 composition pH 7.2, +0.1% mole equiv. Ligand A, day 0): 100.0%
Avg. RA (%) (Ex. 1 composition pH 7.2, +0.1% mole equiv. Ligand A, day 3): 85.0%
Avg. RA (%) (Ex. 1 composition pH 7.2, +0.1% mole equiv. Ligand A, day 7): 63.9%
Avg. RA (%) (Ex. 1 composition pH 7.2, +0.1% mole equiv. Ligand A, day 14): 48.8%
Avg. RA (%) (Ex. 1 composition pH 7.2, +0.1% mole equiv. Ligand A, day 28): 38.0%
Avg. RA (%) (Ex. 1 composition pH 7.2, +0.1% mole equiv. Ligand A, day 56): 18.4%
Avg. RA (%) (Ex. 2 composition pH 7.2, +0.1% mole equiv. Ligand A, day 0): 100.0%
Avg. RA (%) (Ex. 2 composition pH 7.2, +0.1% mole equiv. Ligand A, day 3): 70.7%
Avg. RA (%) (Ex. 2 composition pH 7.2, +0.1% mole equiv. Ligand A, day 7): 63.1%
Avg. RA (%) (Ex. 2 composition pH 7.2, +0.1% mole equiv. Ligand A, day 14): 46.9%
Avg. RA (%) (Ex. 2 composition pH 7.2, +0.1% mole equiv. Ligand A, day 28): 29.3%
Avg. RA (%) (Ex. 2 composition pH 7.2, +0.1% mole equiv. Ligand A, day 56): 13.0%
Avg. RA (%) (Ex. 3 composition pH 7.2, +0.1% mole equiv. Ligand A, day 0): 100.0%
Avg. RA (%) (Ex. 3 composition pH 7.2, +0.1% mole equiv. Ligand A, day 3): 72.0%
Avg. RA (%) (Ex. 3 composition pH 7.2, +0.1% mole equiv. Ligand A, day 7): 53.0%
Avg. RA (%) (Ex. 3 composition pH 7.2, +0.1% mole equiv. Ligand A, day 14): 32.3%
Avg. RA (%) (Ex. 3 composition pH 7.2, +0.1% mole equiv. Ligand A, day 28): 18.6%
Avg. RA (%) (Ex. 3 composition pH 7.2, +0.1% mole equiv. Ligand A, day 56): 5.2%
protease stability versus control, in words: improvement in stability

Results, then the compound that gave them:

Avg. RA (%) (Example 11 composition pH 7.2, +0.1% Ligand F, day 0): 100.0%
Avg. RA (%) (Example 11 composition pH 7.2, +0.1% Ligand F, day 7): 85%
Avg. RA (%) (Example 11 composition pH 7.2, +0.1% Ligand F, day 14): 76%
Avg. RA (%) (Example 11 composition pH 7.2, +0.1% Ligand F, day 28): 63%
SMILES: c1ccc(CN(CCN(Cc2ccccn2)Cc2ccccn2)Cc2ccccn2)nc1 [Ligand F, N,N,N′,N′-tetrakis(pyridin-2ylmethyl)ethylenediamine]

Avg. RA (%) (Example 6 composition pH 7.2, +0.1% Complex D, day 0): 100.0%
Avg. RA (%) (Example 6 composition pH 7.2, +0.1% Complex D, day 7): 100%
Avg. RA (%) (Example 6 composition pH 7.2, +0.1% Complex D, day 14): 92%
Avg. RA (%) (Example 6 composition pH 7.2, +0.1% Complex D, day 28): 74%
SMILES: F[P-](F)(F)(F)(F)F.[Cl-].[Fe+2].c1ccc(CNCCN(Cc2ccccn2)Cc2ccccn2)nc1 [Complex D, [Fe(trispicenNH)Cl]PF6]

Avg. RA (%) (Example 8 composition pH 7.2, +0.06% Complex G, day 0): 100.0%
Avg. RA (%) (Example 8 composition pH 7.2, +0.06% Complex G, day 7): 97%
Avg. RA (%) (Example 8 composition pH 7.2, +0.06% Complex G, day 14): 89%
Avg. RA (%) (Example 8 composition pH 7.2, +0.06% Complex G, day 28): 77%
SMILES: F[P-](F)(F)(F)(F)F.F[P-](F)(F)(F)(F)F.[Fe+2].c1ccc(CN(CCN(Cc2ccccn2)Cc2ccccn2)Cc2ccccn2)nc1 [Complex G, [Fe(tpen)] (PF6)2]

From patent US20020198127A1, “Liquid cleaning compositions and their use” (Unilever Home & Personal Care USA, Division of Conopco, Inc., priority 2001, published 2002)
